Results on seven compounds are retold here after publication PMC6705210, “Inhibition of HTLV-1 Infection by HIV-1 First- and Second-Generation Integrase Strand Transfer Inhibitors” (Frontiers in Microbiology, 2019).

For series [1], the system named is HTLV-1. The arrangement: method as in Pasquier et al., 2018. To be noted: ref Pasquier et al., 2018, cited from earlier work.
For another series, the system named is HIV-1. To be noted: read-out: HIV-1 antiviral activity EC50, cited from earlier work.
The next series has as its target T1, HTLV-1 integrase (Human T-cell leukemia virus 1, UniProt P03362).
T1 construct: Full-length wild type HTLV-1 IN was recombinantly expressed, purified, and characterized; SUMO (pET28a-SUMO fusion) (N); made in house
The experiment in a line: In vitro HTLV-1 integrase strand transfer assay (concerted integration, agarose gel densitometry). The class given is biochemical. The conditions noted are these: for Inhibition of enzymatic activity Hill slope: dose-response fit of strand transfer inhibition. As for the experimental part:
Donor DNA mimicking the U5 3′-processed LTR ends of the viral DNA copy was prepared by annealing oligonucleotides (Supplementary Table S1), in 100 mM Tris pH 7.4, 400 mM NaCl. The optimized conditions for the strand transfer reactions are as follows: a solution was prepared containing 73 mM PIPES pH 6.0, 175 mM NaCl, 16.7 mM MgCl2, 5.8 μM ZnCl2, 12.8 mM DTT, 0.53 μM donor DNA, and 0.8 μM HTLV-1 integrase. Following a 30 min room temperature incubation in the presence or absence of INSTIs in the final concentration of 5% DMSO, the reaction was initiated by addition of 300 ng of pGEM-9Zf(−) supercoiled plasmid DNA. The total volume of each reaction was 150 μL. Reactions were carried out at 37°C for 30 min and were processed as described previously ([Maertens et al., 2010]). All reactions were performed in these conditions unless otherwise stated in the Figure legend. Reactions that included B′γ were done with equimolar ratio of IN to B′γ. The precipitated DNA was resuspended in agarose loading dye and analyzed on a 1.5% agarose gel run in 1× TAE buffer and stained with ethidium bromide. Bands corresponding to products of concerted integration were quantified by densitometry in ImageLab 4.1 (Bio-Rad). All experiments were done in triplicate.
Quantified data points were fitted to a dose-response curve in Prism 7. Cumulative standard deviation for each drug was calculated as an average of the upper limit and lower limit values: […]

Series [2] deals with HTLV-1. Description: HTLV-1 infection of Jurkat cells by cell-to-cell transmission (co-culture with irradiated MT-2), proviral load by qPCR. To be noted: for EC50: read-out: Antiviral activity EC50 (HTLV-1). The class given is cell-based, Human T-cell lymphotropic virus type 1. The method, then:
(§1) Jurkat cells were pre-treated with increasing amounts of INSTI (0.2 pM–2 μM in DMSO), or the carrier (DMSO) for 24 h. MT-2 cells were resuspended to a concentration of 2 × 10^6 cells/mL and exposed to a sub-lethal dose of gamma-irradiation (40,000 Rad). Cells were resuspended in serum-free RPMI to a concentration of 2 × 10^6 cells/mL in the presence of drug, and 0.5 × 10^6 of each cell type were co-cultured for 18 h. Following co-culture, cells were washed in PBS and resuspended in 1 mL of depletion buffer (0.1% FBS, 2 mM EGTA, PBS) before gentle tumbling (1 h, 4°C) with 25 μL of anti-CD25 + magnetic beads (DynaBeads, Thermo Fisher Scientific) to deplete MT-2 cells. Following depletion, the unbound fraction, i.e., Jurkat cells were maintained in RPMI with the drug present for 16 days before genomic DNA harvest (DNeasy kit, Qiagen). All experiments were done in triplicate. Depletion of MT-2 cells was verified by FACS. For cellular toxicity measurements, Jurkat cells were grown in the presence of the INSTIs as described above. Viability was measured by live dead stain (Hoechst 33258) and analyzed by FACS.
Proviral load (PVL) was estimated as previously described ([Manivannan et al., 2016]; [Rowan et al., 2016]). Genomic DNA concentrations were measured by nanospectroscopy (DeNovix), and samples were diluted to 5 ng/μL for real-time PCR (qPCR) analysis. qPCR reactions were performed for both the HTLV-1 tax gene and the human GAPDH gene (Supplementary Table S2). Gene copy numbers were determined by comparison to standard curves generated from a clone with a known single integration site (clone 11.50, courtesy of Prof. Charles Bangham). PVL was calculated by comparison of tax and GAPDH copy numbers as a fraction, multiplied by 100 to generate a percentile value assuming a single copy of tax and two copies of GAPDH per infected cell ([Lairmore et al., 1989]). Alu-PCR was performed as described previously ([Alais et al., 2015]), with the modification that the nested PCR was also run as a qPCR using SYBR-green (primers used are shown in Supplementary Table S2). Integrated provirus copy numbers were normalized to GAPDH, and DMSO treated HTLV-1 infected Jurkat cells were arbitrarily set to 100%. Averages and standard deviations of three independent experiments are shown. P-values were calculated using the student’s t-test.

The nature of series [3]: Cellular toxicity in Jurkat cells (live dead stain Hoechst 33258, FACS). In kind it is cell-based. To be noted: human. The method, then: as §1, with “MT-2” for “Jurkat cells were pre-treated with increasing amounts of INSTI (0.2 pM–2 μM in DMSO), or the carrier (DMSO) for 24 h. MT-2”
Setting [4] is: HTLV-1 IN 0.8 μM, concerted integration product.
Where [5] appears, read: HTLV-1 IN 0.8 μM, concerted integration product, triplicate, read-out: Inhibition of enzymatic activity IC50.
[6] abbreviates: Jurkat cells co-cultured with irradiated MT-2, PVL 16 days post-infection.
The mark [7] stands for this setting: Primate T-lymphotropic virus 1, Jurkat, light or radiation study, 384 h, Jurkat cells co-cultured with irradiated MT-2, PVL 16 days post-infection.

Where two headings read alike, the source gives them in different places.

T1 sequence (P03362 1168-1462): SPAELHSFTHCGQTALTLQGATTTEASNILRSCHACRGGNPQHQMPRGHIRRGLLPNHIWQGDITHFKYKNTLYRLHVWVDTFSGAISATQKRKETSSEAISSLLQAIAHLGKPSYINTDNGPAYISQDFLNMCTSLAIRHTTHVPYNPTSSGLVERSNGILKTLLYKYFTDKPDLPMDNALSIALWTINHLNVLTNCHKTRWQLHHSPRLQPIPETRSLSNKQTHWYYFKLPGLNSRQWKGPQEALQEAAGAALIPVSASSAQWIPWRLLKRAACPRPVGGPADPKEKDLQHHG

`Cc1cn([C@H]2C[C@H](N=[N+]=[N-])[C@@H](CO)O2)c(=O)[nH]c1=O` [zidovudine]: the “inhibition of HTLV-1 infection” value with HTLV-1 [1] (at 50 μM concentration) is 10–20%.
In general, EC50 refers to the concentration giving half of the maximal effect. In general, IC50 refers to the concentration needed to halve the response being measured. On to `Cn1c(N2CCCCS2(=O)=O)nc(C(=O)NCc2ccc(F)cc2)c(O)c1=O` [BMS-707035], for which the EC50 with HIV-1 (ref c) is 2.5 nM. The “Inhibition of enzymatic activity IC95” value on HTLV-1 integrase (setting [4]) was 12200 ± 2900 nM. In addition, the IC50 at HTLV-1 integrase (setting [5]) was 350 ± 74 nM. Besides, the “Inhibition of enzymatic activity Hill slope” value at HTLV-1 integrase stood at 0.83.
Consider `CC(C)OC(=O)OCOP(=O)(CO[C@H](C)Cn1cnc2c(N)ncnc21)OCOC(=O)OC(C)C.O=C(O)/C=C/C(=O)O` [TDF, tenofovir disproxil fumarate], for which, in the series on HTLV-1 [1] (at concentrations of 10 μM), the HTLV-1 infection blocked entry is “about 50%”. The EC50 in the series on HTLV-1 [2] (setting [6]) came to 17.8 ± 7.16 nM.
In general, CC50 refers to the concentration at which the toxic effect on the cells reaches its halfway point. Turning to `Cc1nnc(C(=O)NC(C)(C)c2nc(C(=O)NCc3ccc(F)cc3)c(O)c(=O)n2C)o1` [Raltegravir, raltegravir], the EC50 with HIV-1 (ref a) is 9.4 ± 1.4 nM. Besides, at HTLV-1 integrase, the half-maximal inhibitory concentration (IC50) was found to be 530 ± 102 nM and the “Inhibition of enzymatic activity Hill slope” value was found to be 0.73. In addition, the “Inhibition of enzymatic activity IC95” value on HTLV-1 integrase (setting [4]) is 29920 ± 5750 nM. Moreover, the half-maximal cytotoxic concentration (CC50) in series [3] (Jurkat cells, read-out: CC50) is over 20000 nM. Further, the “Antiviral activity EC95 (HTLV-1)” value in the series on HTLV-1 [2] (setting [6]) was determined as 1020 ± 675 nM. Besides, the concentration for a half-maximal effect (EC50) in the series on HTLV-1 [2] (Primate T-lymphotropic virus 1, Jurkat, light or radiation study, 384 h) was 6.42 ± 4.24 nM.
`COc1cc2c(cc1Cc1cccc(Cl)c1F)c(=O)c(C(=O)O)cn2[C@H](CO)C(C)C` [Elvitegravir, elvitegravir]: at HTLV-1 integrase, inhibition was half-maximal at 100 ± 16 nM (IC50) and the “Inhibition of enzymatic activity Hill slope” value was determined as 1.0. The “Inhibition of enzymatic activity IC95” value at HTLV-1 integrase (setting [4]) was 1900 ± 304 nM. In series [3], this compound registered a cytotoxic concentration (CC50) of over 20000 nM. Besides, in the series on HTLV-1 [2] (setting [6]), the “Antiviral activity EC95 (HTLV-1)” value worked out at 1270 ± 735 nM. Besides, the EC50 in the series with HTLV-1 [2] (setting [7]) was determined as 9.57 ± 5.54 nM.
`C[C@@H]1CCO[C@H]2Cn3cc(C(=O)NCc4ccc(F)cc4F)c(=O)c(O)c3C(=O)N12` [Dolutegravir, dolutegravir]: the EC50 in the series on HIV-1 (ref a) is 1.4 ± 0.3 nM. Also, the “Inhibition of enzymatic activity IC95” value at HTLV-1 integrase (setting [4]) came out at 3020 ± 485 nM. Also, on HTLV-1 integrase (setting [5]), the IC50 came to 260 ± 59 nM. In addition, the “Inhibition of enzymatic activity Hill slope” value at HTLV-1 integrase is recorded as 1.2.
Turning to `O=C(NCc1c(F)cc(F)cc1F)c1cn2c(c(O)c1=O)C(=O)N1[C@H]3CC[C@H](C3)O[C@@H]1C2` [Bictegravir, bictegravir], the EC50 with HIV-1 (ref a) is 1.6 ± 0.4 nM; in the series with HTLV-1 [2] (setting [6]), 0.302 ± 0.173 nM; in the series with HTLV-1 [2] (setting [7]) it was 0.3 ± 0.17 nM. In addition, the “Inhibition of enzymatic activity IC95” value on HTLV-1 integrase (setting [4]) was found to be 2090 ± 437 nM. On HTLV-1 integrase (setting [5]), the IC50 turned out to be 180 ± 29 nM. Besides, at HTLV-1 integrase, the “Inhibition of enzymatic activity Hill slope” value is 1.2. Also, the “activity relative to elvitegravir” value on HTLV-1 integrase (in vitro assays, versus elvitegravir) is about 55%. Besides, the CC50 in series [3] was over 20000 nM. In the series with HTLV-1 [2] (HTLV-1 cell-to-cell infection model, versus raltegravir or elvitegravir), the “fold higher activity than raltegravir or elvitegravir, respectively” value is 20–30 fold. Besides, the “Antiviral activity EC95 (HTLV-1)” value in the series with HTLV-1 [2] (setting [6]) came out at 31.8 ± 18.2 nM. In the series with HTLV-1 [2] (versus TDF), the “more potent than TDF in blocking HTLV-1 infection” value is about 60.
